# Positions of bridges follow the written chain, without caps; N, C: chain ends. Residues, ends and D or L forms follow the SMILES beside them. Chains are numbered I, II in the order given.
# Tests used:
# HeLa cells [1] = experiment: Resazurin-based cell viability assay; parameters: species or system human; settings: 24 h incubation, up to 100 µM peptide
# Method: (§1) We used the following cell lines: HEK 293 (human embryonal kidney), HeLa (human cervix carcinoma), MCF-7 (human breast adenocarcinoma), HT-29 (human colon adenocarcinoma), K-562 (human chronic myeloid leukemia) and Jurkat (human T cell leukemia). All cells were cultured in 75 cm^2 culture flasks at 37 °C and 5% CO2 in a humidified atmosphere and split when confluent. For HEK 293 cells Dulbecco’s Modified Eagle Medium/ Ham’s F12 (without L-glutamine) containing 15% heat-inactivated foetal calf serum was used. HeLa and Jurkat cells were grown in supplemented RPMI 1640 (with L-glutamine) with 10% heat-inactivated foetal calf serum, MCF-7 cells in Dulbecco’s Modified Eagle Medium/ Ham’s F12 (without L-glutamine) containing 10% heat-inactivated foetal calf serum and 1% glutamine, and HT-29 and K-562 cells in Dulbecco’s Modified Eagle Medium supplemented with 10% heat-inactivated foetal calf serum. Detachment and dissociation of confluent cells was done by Trp/EDTA (0.05%/0.02% in PBS). For microscopic studies cells were seeded in glass-bottomed 8-well plates, whereas cells for cell viability and flow cytometric studies were cultured in 96-well plates.
# HT-29 cells = experiment: MTT cell viability assay; format: cell-based, human; settings: 24 h, 1-100 µM peptide
# Method: as §1
# MCF-7 cells = experiment: MTT cell viability assay; format: cell-based, human; settings: 24 h, 1-100 µM peptide
# Method: as §1
# Jurkat cells = experiment: Flow cytometric analysis of cell viability (FDA/PI staining); format: cell-based, human; settings: flow cytometry FDA/PI, 24 h, 1-50 µM peptide
# Method: as §1
# (§2) Untreated cells were used as negative control.
# K562 cells = experiment: as above; format: cell-based, human; settings: flow cytometry FDA/PI, 24 h, 1-50 µM peptide
# Method: as §1, §2
# HeLa cells [2] = experiment: Flow cytometric studies of peptide uptake; format: cell-based, human; settings: for uptake of chimeric peptide versus parent CPP: CF-labelled, 10 min, several peptide concentrations, flow cytometry
# Method: Finally, cells were diluted with cold HBSS and inspected.
# [3] = tested on: several cell lines (MCF-7, HT-29, HEK293, K562, Jurkat); settings: for cytotoxicity, several cell lines: several cell lines (MCF-7, HT-29, HEK293, K562, Jurkat), concentrations of up to 100 µM
# Method: The effect of the peptides on the viability of HT-29 and MCF-7 cells was checked by using the MTT-assay. Therefore, cells were cultivated to subconfluency under standard conditions in 96-well plates. The treatment was performed with 1-100 µM of the peptides for 24 h. Then, 10-fold stock solution of MTT reagent (5 mg/mL in medium) was added to each sample, and the cells were incubated for further 2 h. Formazan crystals were solubilised with 200 µL DMSO per well. After incubation for 15 min at 400 rpm and RT, absorbance was measured with a Tecan Saphire plate reader (560 nm, reference filter 630 nm).
# The viability after peptide treatment (1-50 µM peptide solutions) for 24 h of the suspension cell lines Jurkat and K562 was tested by using flow cytometry. For this purpose, 2.5 × 10^5 cells per sample were stained with fluorescein diacetate (FDA) (0.04 µg/100 µL cell suspension) and propidium iodide (PI) (25 µg/100 µL cell suspension) in FACS buffer (1% BSA in PBS). Samples were incubated for 15 min at RT in the dark, washed and resuspended in FACS buffer.
# Viability of the stained cells was analysed using a FACS®Calibur and CellQuest Pro analysis software (both Becton Dickinson, Franklin Lakes, USA) and is represented as relative cell number of viable cells. Untreated cells were used as negative control. Excitation and emission settings were 488 nm and 525–550 nm for FDA and 488 nm and 564–606 nm for PI staining.
# K562 erythrocytes = settings: cited from earlier work
# Source text: (§3) Therefore, we further elucidated the cytotoxicity profiles of the chimeric peptides for several cell lines (including MCF-7, HeLa and HT-29 cells, as well as suspension cell lines K562 and Jurkat).
# [4] = tested on: MDA-MB-231 breast cancer cells; settings: cited from earlier work
# Source text: as §3
Compound,IC50 (HeLa cells [1]) [µM],IC50 (HT-29 cells) [µM],IC50 (MCF-7 cells) [µM],IC50 (Jurkat cells) [µM],IC50 (K562 cells) [µM],uptake of chimeric peptide versus parent CPP (HeLa cells [2]),"cellular translocation of the peptide alone (HeLa cells [2]; CF-labelled analogue, 60 min, several concentrations, fluorescence microscopy and flow cytometry)","cytotoxicity, several cell lines [3]","cytotoxic effects, all tested cell lines ([3]; all tested cell lines, data not shown)",haemolytic effect (K562 erythrocytes),membrane toxicity [4]
CC(C)C[C@H](NC(=O)CN)C(=O)N[C@@H](CC(C)C)C(=O)N[C@@H](CCC(=O)O)C(=O)N[C@@H](C)C(=O)N[C@@H](CC(C)C)C(=O)N[C@@H](C)C(=O)N[C@@H](CCC(=O)O)C(=O)N[C@@H](CC(C)C)C(=O)N[C@@H](CC(C)C)C(=O)N[C@@H](CCC(=O)O)C(=O)NCC(=O)N[C@@H](CCCNC(=N)N)C(=O)N[C@@H](CCCCN)C(=O)N[C@@H](CCCCN)C(=O)N[C@@H](CCCNC(=N)N)C(=O)N[C@@H](CCCNC(=N)N)C(=O)N[C@@H](CCC(N)=O)C(=O)N[C@@H](CCCNC(=N)N)C(=O)N[C@@H](CCCNC(=N)N)C(=O)N[C@@H](CCCNC(=N)N)C(=O)N1CCC[C@H]1C(=O)N1CCC[C@H]1C(=O)N[C@@H](CCC(N)=O)C(N)=O [N-E5L-Tat(48-60)] (H-GLLEALAELLEGRKKRRQRRRPPQ-NH2),29.4 ± 3.9,90.9 ± 0.2,39.3 ± 9.4,7.9 ± 0.8,> 30,higher uptake values,–,–,–,–,–
CC[C@H](C)[C@H](NC(=O)[C@H](C)NC(=O)[C@@H](NC(=O)[C@H](CCC(N)=O)NC(=O)[C@@H]1CCCN1C(=O)[C@H](Cc1ccccc1)NC(=O)[C@@H](NC(=O)[C@H](Cc1c[nH]cn1)NC(=O)[C@H](Cc1ccccc1)NC(=O)[C@H](CCCCNC(=O)[C@H](C)NC(=O)[C@H](Cc1ccccc1)NC(=O)[C@H](CCCCN)NC(=O)[C@H](CCCNC(=N)N)NC(=O)[C@H](CCCCN)NC(=O)[C@H](CCCCN)NC(=O)[C@H](CCCCN)NC(=O)[C@@H]1CCCN1C(=O)[C@H](C)NC(=O)[C@H](CCCCN)NC(=O)[C@H](CCCNC(=N)N)NC(=O)[C@H](CCCCN)NC(=O)[C@@H](N)CCCCN)NC(=O)[C@H](CCC(=O)O)NC(=O)[C@H](CC(C)C)NC(=O)[C@H](CC(C)C)NC(=O)[C@H](CCC(=O)O)NC(=O)[C@H](C)NC(=O)[C@H](CC(C)C)NC(=O)[C@H](C)NC(=O)[C@H](CCC(=O)O)NC(=O)[C@H](CC(C)C)NC(=O)[C@H](CC(C)C)NC(=O)CN)[C@@H](C)O)[C@@H](C)O)C(=O)NCC(=O)N[C@H](C(=O)NCC(=O)N[C@@H](C)C(=O)N1CCC[C@H]1C(N)=O)C(C)C [N-E5L-hCT(18-32)-k7] (I: H-GLLEALAELLEKFHTFPQTAIGVGAP-NH2 / II: H-KKRKAPKKKRKFA; amide I:12-II:C; N-terminus assumed),33.1 ± 3.3,59.1 ± 0.1,37.8 ± 6.5,11.4 ± 4.2,> 30,higher uptake values,–,–,–,–,–
CC[C@H](C)[C@H](NC(=O)[C@H](CCCCN)NC(=O)[C@H](CC(N)=O)NC(=O)[C@H](CCCNC(=N)N)NC(=O)[C@H](Cc1ccccc1)NC(=O)[C@H](CCCCN)NC(=O)[C@H](CCCNC(=N)N)NC(=O)[C@H](CC(C)C)NC(=O)[C@H](CCCNC(=N)N)NC(=O)[C@H](CCCCN)NC(=O)[C@H](CCCNC(=N)N)NC(=O)[C@H](CC(C)C)NC(=O)CNC(=O)[C@H](CCC(=O)O)NC(=O)[C@H](CC(C)C)NC(=O)[C@H](CC(C)C)NC(=O)[C@H](CCC(=O)O)NC(=O)[C@H](C)NC(=O)[C@H](CC(C)C)NC(=O)[C@H](C)NC(=O)[C@H](CCC(=O)O)NC(=O)[C@H](CC(C)C)NC(=O)[C@H](CC(C)C)NC(=O)CN)C(=O)N[C@@H](CCCCN)C(=O)N[C@@H](CCC(=O)O)C(=O)N[C@@H](CCCCN)C(N)=O [N-E5L-sC18] (H-GLLEALAELLEGLRKRLRKFRNKIKEK-NH2),31.8 ± 1.9,72.1 ± 0.1,30.8 ± 4.1,7.3 ± 1.7,> 30,higher uptake values,–,–,–,–,–
GLLEALAELLE [N-E5L],–,–,–,–,–,–,unable to translocate in cells,no cytotoxicity was observed,–,–,–
GLRKRLRKFRNKIKEK [sC18],–,–,–,–,–,–,–,no cytotoxicity was observed,–,–,–
GRKKRRQRRRPPQ [Tat(48-60)],–,–,–,–,–,–,–,–,no cytotoxic effects,no haemolytic effect,no membrane toxicity

# — paper PMC3978507, “Fusion of a Short HA2-Derived Peptide Sequence to Cell-Penetrating Peptides Improves Cytosolic Uptake, but Enhances Cytotoxic Activity” (Pharmaceuticals, 2009)
